Experiments:
[1] = Pharmacokinetic parameters for different drugs following single oral or intravenous administration in healthy subjects.; conditions: human, in vivo, 100 mg
[2] = Pharmacokinetic parameters for different drugs following multiple oral or intravenous administration in healthy subjects.; format: ADME, organism-based; set-up: dose 200 mg/day, route oral; conditions: human, in vivo, dosed compound id 68, dosed compound name IMIPRAMINE HYDROCHLORIDE, regimen Repeated dose, study dosing duration 4 weeks, tissue Plasma

CN(C)CCCN1c2ccccc2CCc2ccccc21.Cl [IMIPRAMINE HYDROCHLORIDE]
Vd ([1]; iv): 18 L/kg | bioavailability ([1]; iv): 42% | dose excreted ([1]; iv): 2% | half-life ([1]; iv): 16 h | Cmax ([2]; po, 200 mg/day): 200 ng/mL | Tmax ([2]; dose 200 mg/day, route oral): 2 to 6 h

NC[C@H]1O[C@H](O[C@H]2[C@H](O)[C@@H](O[C@H]3O[C@H](CO)[C@@H](O)[C@H](N)[C@H]3O)[C@H](N)C[C@@H]2N)[C@H](N)C[C@@H]1O [TOBRAMYCIN]
Tmax ([1]; im): 0.3 h | bioavailability ([1]; inhaled or intranasal): 9% | Vd ([1]; iv): 0.33 L/kg | clearance ([1]; iv): 0.98 mL/min/kg | dose excreted ([1]; iv): 90% | half-life ([1]; iv): 2.2 h | Cmax ([1]; po, Cmax): 4600 ng/mL

Source: ChEMBL document CHEMBL3832076, “Goodman and Gilman Ed. 10 | The Pharmaceutical Basis of Therapeutics| Table A-II-I: Pharmacokinetic Data” (2001)
